# Source: patent US10919896B2, “Preparation and uses of pyrimidinone derivatives” (Cancer Research Technology Limited, priority 2016, dated 2021)
# Counter-ions that a name gives are not always drawn.
# Legend:
# [1] = tested on: Cdc7 (pS40MCM2 levels in HCT116 cells); experiment: Cdc7 Cell Pharmacodynamics Assay Method 2A: pS40MCM2 levels in HCT116 cells, 6 hours; format: cell-based; settings: Homo sapiens, HCT-116, read-out: Biomarker Method 2A (pEC50) (converted)
# Excerpt: This protocol describes a method to investigate the inhibition of Cdc7 activity by measuring pS40MCM2 levels in cells, after treatment with compounds.
# • HCT116 cells (ATCC, #CCL-247) • McCoys 5A with L-glutamine (Cellgro, #10-050-CV) • 10% FCS (Cellgro, #35-010-CV) • D-PBS without CaCl2 and MgCl2 (Cellgro, #21-031-CV) • Trypsin/EDTA (Cellgro, #25-052-CL) • BSA (Calbiochem, 126593) • Cell Extraction Buffer (Invitrogen FNN0011) • Protease inhibitor cocktail (Sigma P-2714) • PMSF 0.3M stock in DMSO (Sigma P7626) • Antibody-rabbit pMCM2 Ser40 (Abcam, AB133243) • Antibody-goat MCM2 (Bethyl #A300-122A) • Antibody-goat Anti Rabbit IgG HRP (Thermo, 31462) • SuperSignal ELISA Pico Chemiluminescent Substrate (Perbio Science UK Ltd 37069) • 10×PBS (Growcells, MRGF-6236) • Triton X100 (Sigma, P-T8787) • DMSO (Fisher, D128-1) • 2-Propanol (J. T. Baker, 9095-03) Method • Seed 1×10^6 HCT116 cells into each of two 175 cm^2 flask containing 30 mL Cell Growth Media and incubate at 37° C., 5% CO2 for 3 days. • Harvest the cells from one T175 cm^2 flask and count. • Dilute with Cell Growth Media to a cell density of 2×10^5. Dispense 100 μL to each well (20,000 HCT116 cells/well) of TC treated 96-well plate(s). • Allow cells to settle overnight in incubator set at 37° C. and 5% CO2. • Cell treatment: Transfer 0.25 μL/well from the compound plate to the wells of the cell plate(s). This is a 1:400 dilution of compound in the assay. • Once all cells are treated place the cells back to the incubator and incubate for either 6 hours (Method 2A) or 18 hours (Method 2B). • Dilute the capture antibody (total MCM2#A300-122A) 1 in 250 in the required volume of PBS (5 mL per assay plate, plus 5 mL for dead volume) and add 50 μL to each well of a Hybond plate except wells A12 & B12. Seal the plate and incubate at room temperature for a minimum of 2 hours. • Defrost aliquot of Invitrogen Cell Extraction Buffer (FNN0011) on ice and supplement with appropriate volume of both Sigma protease inhibitor cocktail (P-2714) and PMSF (final conc 1 mM from a 1 M stock in DMSO). • After the 6 hour or 18 hour cell treatment time, tap out the media from the assay plates and place them in the −70° C. freezer for at least 5 minutes. • Flick out the remaining liquid in the previously prepared capture Ab plate(s) and add 200 μL 2% BSA per well. Incubate for 1 hour at room temperature. • Remove plates from freezer and add 20 μL of ice cold complete lysis buffer. Incubate cells for 30 minutes at 4° C. • Add 30 μL per well 2% BSA • At the end of the 1 hour incubation, wash the Capture/ELISA plate(s) with Wash Buffer on the BioTek plate washer. • Transfer 40 μL per well of the lysis plate(s) to the same wells in the Capture/ELISA plate. Incubate cells overnight at 4° C. • At the end of the overnight incubation, wash the ELISA plate(s) with Wash Buffer on BioTek plate washer. • Prepare Detection Antibody Buffer and dispense 50 μL to all wells of ELISA plate(s) except wells G1 & H1. Cover plate and incubate at room temperature for 2 hours with gentle shaking. • At the end of the 2 hour incubation, wash the ELISA plate(s) with Wash Buffer on the BioTek plate washer. • Prepare the Conjugated Antibody Buffer and dispense 50 μL to all wells of ELISA plate(s). • Cover the plate and incubate at room temperature for 1 hour with gentle shaking. • At the end of the 1 hour incubation, wash the ELISA plate(s) with Wash Buffer on the BioTek plate washer. • Prepare Substrate Buffer and dispense 50 μL to all wells of ELISA plate(s). • Incubate for a minimum of 10 minutes and read plates on the EnVision 2100 Multilabel Reader (Mirror: Luminescence (404) & Luminescence 700 (212); Measurement Height: 6.5 mm; Measurement Time: 0.2 s). Method 3
# Cdc7/Dbf4 = Cdc7/Dbf4 (Homo sapiens, UniProt O00311); experiment: Cdc7 Biochemical Assay Method 3: Cdc7/Dbf4 Enzyme TR-FRET Assay measuring pS40MCM2; settings: 1 μM ATP, read-out: Biochemical Method 3 (pIC50) (converted)
# Outline: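 TR-FRET read-out (terbium anti-rabbit donor, streptavidin-Alexa Fluor488 acceptor, anti-Mcm2 pS40 antibody) of peptide phosphorylation after 120 min at 25° C; reaction held 1 μM ATP, 100 nM biotin-tagged peptide substrate and 2.5 nM enzyme complex.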
# Sequence of Cdc7/Dbf4 (O00311 whole entry): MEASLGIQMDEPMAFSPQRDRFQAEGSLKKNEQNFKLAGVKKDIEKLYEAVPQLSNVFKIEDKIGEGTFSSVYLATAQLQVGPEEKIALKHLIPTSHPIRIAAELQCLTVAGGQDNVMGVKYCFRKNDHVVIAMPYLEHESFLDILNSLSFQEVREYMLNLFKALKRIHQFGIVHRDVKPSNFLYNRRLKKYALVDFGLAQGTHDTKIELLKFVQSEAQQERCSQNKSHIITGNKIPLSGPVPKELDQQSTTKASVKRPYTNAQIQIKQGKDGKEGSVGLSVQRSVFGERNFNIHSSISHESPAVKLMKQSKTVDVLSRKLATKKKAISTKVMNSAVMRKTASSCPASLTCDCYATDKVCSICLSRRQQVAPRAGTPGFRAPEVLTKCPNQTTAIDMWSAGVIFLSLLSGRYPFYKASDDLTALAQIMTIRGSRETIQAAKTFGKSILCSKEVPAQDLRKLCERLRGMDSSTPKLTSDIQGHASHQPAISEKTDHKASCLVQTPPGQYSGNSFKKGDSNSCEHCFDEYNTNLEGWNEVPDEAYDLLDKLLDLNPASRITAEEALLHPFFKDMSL
# Sequence of Cdc7/Dbf4 (Q9UBU7 whole entry partner): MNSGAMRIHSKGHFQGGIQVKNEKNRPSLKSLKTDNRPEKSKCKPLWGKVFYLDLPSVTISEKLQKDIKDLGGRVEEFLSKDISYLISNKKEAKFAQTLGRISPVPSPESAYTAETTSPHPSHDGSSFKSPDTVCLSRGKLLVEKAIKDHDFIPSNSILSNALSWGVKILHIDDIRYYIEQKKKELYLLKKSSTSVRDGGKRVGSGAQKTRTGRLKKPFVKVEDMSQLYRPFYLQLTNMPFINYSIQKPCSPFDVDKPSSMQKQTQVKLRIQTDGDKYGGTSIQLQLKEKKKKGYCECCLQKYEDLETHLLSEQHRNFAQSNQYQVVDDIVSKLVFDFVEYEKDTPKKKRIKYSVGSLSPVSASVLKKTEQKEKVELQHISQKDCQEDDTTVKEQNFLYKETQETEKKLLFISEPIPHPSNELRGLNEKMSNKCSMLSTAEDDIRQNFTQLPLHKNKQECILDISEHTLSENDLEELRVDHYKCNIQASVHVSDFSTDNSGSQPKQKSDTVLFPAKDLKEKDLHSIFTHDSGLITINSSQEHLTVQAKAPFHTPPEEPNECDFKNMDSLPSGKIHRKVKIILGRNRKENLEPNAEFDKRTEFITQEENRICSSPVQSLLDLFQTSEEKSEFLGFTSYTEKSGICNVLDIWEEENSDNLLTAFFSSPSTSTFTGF
Compound,EC50 [1] [nM],IC50 (Cdc7/Dbf4) [nM]
O=c1[nH]c(-c2ccncc2)nc(N2CCN(CC(F)F)CC2)c1Cl [Compound 147],427,1.55
C[C@@H]1CNCCN1c1nc(-c2ccncc2)[nH]c(=O)c1Cl [Compound 364],26.9,1.41
O=c1[nH]c(-c2ccncc2)nc(N2CCN[C@H](C(F)(F)F)C2)c1Cl [Compound 139],851,4.07
O=c1[nH]c(-c2ccncc2)nc(N2CCN[C@@H](C(F)(F)F)C2)c1Cl [Compound 180],37.2,1.38
CC(C)(C)[C@H]1CN(c2nc(-c3ccncc3)[nH]c(=O)c2F)CCN1 [Compound 185],85.1,0.724
O=c1[nH]c(-c2ccnc(F)c2)nc(N2CCOCC2)c1Cl [Compound 316],44.7,0.525
C[C@H]1CN(c2nc(-c3ccncc3)[nH]c(=O)c2Cl)CCN1 [Compound 130],776,2.34
"O=c1[nH]c(-c2ccnc(F)c2)nc(N2CCCC(F)(F)C2)c1Cl [Compound 90, 5-chloro-4-(3,3-difluoro-1-piperidyl)-2-(2-fluoro-4-pyridyl)-1H-pyrimidin-6-one]",–,0.355

# Continued, values first:
EC50 [1] [nM],IC50 (Cdc7/Dbf4) [nM],Compound
83.2,0.871,O=c1[nH]c(-c2ccnc(F)c2)nc(N2CCNCC2)c1Cl [Compound 360]
219,0.676,N[C@H]1CCCN(c2nc(-c3ccnc(F)c3)[nH]c(=O)c2Cl)C1 [Compound 317]
21.9,1.05,CC(C)[C@H]1CN(c2nc(-c3ccnc(F)c3)[nH]c(=O)c2Cl)CCN1 [Compound 170]
12,0.537,C[C@@H]1CNCCN1c1nc(-c2ccnc(F)c2)[nH]c(=O)c1Cl [Compound 323]
126,0.933,N[C@@H]1CCCN(c2nc(-c3ccnc(F)c3)[nH]c(=O)c2Cl)C1 [Compound 319]
11.5,0.589,"O=c1[nH]c(-c2ccnc(F)c2)nc(N2CCNCC(F)(F)C2)c1Cl [Compound 312, 5-chloro-4-(6,6-difluoro-1,4-diazepan-1-yl)-2-(2-fluoro-4-pyridyl)-1H-pyrimidin-6-one hydrochloride]"
